The values below come from ChEMBL document CHEMBL5143557, “Synthesis and biological evaluation of 3β-O-neoglycosides of caudatin and its analogues as potential anticancer agents” (Bioorg Med Chem, 2022).

Type in all cases: functional, cell-based
One assay deals with HeLa. The assay is described as follows: Antiproliferative activity against human HeLa cells after 48 hrs by MTT assay.
A further assay has as its system HepG2. The assay is described as follows: Antiproliferative activity against human HepG2 cells after 48 hrs by MTT assay. The settings on record: HepG2, 48 h. (In general: Tetrazolium assays rely on reduction of a dye to a coloured formazan, in cell work by metabolically active cells.)
In the next assay the test system is MCF7. The assay is described as follows: Antiproliferative activity against human MCF7 cells after 48 hrs by MTT assay. The following applies: MCF7, 48 h.
Another assay deals with HCT-116. Put plainly: Antiproliferative activity against human HCT-116 cells after 48 hrs by MTT assay. The following applies: HCT-116, 48 h.

Turning to `CC(=O)[C@]1(O)CC[C@@]2(O)[C@]1(C)[C@H](OC(=O)c1ccc(O)cc1)C[C@@H]1[C@@]3(C)CC[C@H](O)CC3=CC[C@]12O`, the IC50 is greater than 100 µM in the assay with HeLa, 79.1 µM in the assay with HepG2, 83.1 µM in the assay with MCF7 and 73 µM in the assay on HCT-116.
As to `CC(=O)[C@]1(O)CC[C@@]2(O)[C@]1(C)[C@H](OC(=O)/C=C(\C)C(C)C)C[C@@H]1[C@@]3(C)CC[C@H](O[C@@H]4OC[C@H](O)[C@H](O)[C@H]4O)CC3=CC[C@]12O`, the IC50 is greater than 100 µM in the assay with HeLa, 87.5 µM with HepG2, greater than 100 µM in the assay on MCF7 and greater than 100 µM with HCT-116.
As for `CC(=O)O[C@@H]1[C@@H](OC(C)=O)[C@H](O[C@H]2CC[C@@]3(C)C(=CC[C@]4(O)[C@@H]3C[C@@H](OC(=O)c3ccc(O)cc3)[C@@]3(C)[C@]4(O)CC[C@@]3(O)C(C)=O)C2)OC[C@H]1OC(C)=O`, the IC50 in the assay with HeLa stood at 60.8 µM; in the assay on HepG2 it was 28.5 µM; in the assay on MCF7 it was 55.4 µM; in the assay on HCT-116, 35.3 µM.
As to `CC(=O)O[C@@H]1[C@@H](OC(C)=O)[C@H](O[C@H]2CC[C@@]3(C)C(=CC[C@]4(O)[C@@H]3C[C@@H](OC(=O)/C=C(\C)C(C)C)[C@@]3(C)[C@]4(O)CC[C@@]3(O)C(C)=O)C2)OC[C@@H]1OC(C)=O`, the half-maximal inhibitory concentration (IC50) in the assay on HeLa was 33.6 µM; in the assay with HepG2 it was 23.6 µM; in the assay on MCF7 it was 43.1 µM; in the assay with HCT-116, 23.8 µM.
Turning to `CC(=O)O[C@@H]1[C@@H](O[C@H]2CC[C@@]3(C)C(=CC[C@]4(O)[C@@H]3C[C@@H](OC(=O)/C=C(\C)C(C)C)[C@@]3(C)[C@]4(O)CC[C@@]3(O)C(C)=O)C2)OC[C@@H](OC(C)=O)[C@H]1OC(C)=O`, the 50% inhibitory concentration (IC50) was 60.5 µM in the assay with HeLa, 52.8 µM in the assay on HepG2, 52.6 µM in the assay with MCF7 and 29.6 µM with HCT-116.
Regarding `CC(=O)OC[C@H]1O[C@@H](O[C@H]2CC[C@@]3(C)C(=CC[C@]4(O)[C@@H]3C[C@@H](OC(=O)c3ccc(O)cc3)[C@@]3(C)[C@]4(O)CC[C@@]3(O)C(C)=O)C2)[C@H](OC(C)=O)[C@@H](OC(C)=O)[C@@H]1OC(C)=O`, the IC50 was 95.8 µM in the assay with HeLa, 74.5 µM with HepG2, 90.9 µM with MCF7 and 66.2 µM in the assay on HCT-116.
Regarding `CC(=O)[C@]1(O)CC[C@@]2(O)[C@]1(C)[C@H](OC(=O)c1ccc(O)cc1)C[C@@H]1[C@@]3(C)CC[C@H](O[C@@H]4O[C@H](CO)[C@H](O)[C@H](O)[C@H]4O)CC3=CC[C@]12O`, the half-maximal inhibitory concentration (IC50) in the assay on HeLa came out at 25.1 µM; in the assay on HepG2 it was 23.7 µM; in the assay on MCF7, 20.9 µM; in the assay on HCT-116, 27.3 µM.
`CC(=O)OC[C@H]1O[C@H](O[C@H]2CC[C@@]3(C)C(=CC[C@]4(O)[C@@H]3C[C@@H](OC(=O)/C=C(\C)C(C)C)[C@@]3(C)[C@]4(O)CC[C@@]3(O)C(C)=O)C2)[C@@H](OC(C)=O)[C@@H](OC(C)=O)[C@@H]1OC(C)=O`: the IC50 is 70.2 µM in the assay with HeLa, 23.7 µM in the assay with HepG2, 42.7 µM in the assay with MCF7 and 15.6 µM in the assay with HCT-116.
With `CC(=O)OC[C@H]1O[C@@H](O[C@H]2CC[C@@]3(C)C(=CC[C@]4(O)[C@@H]3C[C@@H](OC(=O)/C=C(\C)C(C)C)[C@@]3(C)[C@]4(O)CC[C@@]3(O)C(C)=O)C2)[C@H](OC(C)=O)[C@@H](OC(C)=O)[C@@H]1OC(C)=O`, the 50% inhibitory concentration (IC50) in the assay with HeLa is greater than 100 µM; in the assay with HepG2, 65.8 µM; in the assay with MCF7, 93.4 µM; in the assay on HCT-116, 26.6 µM.
As to `CC(=O)O[C@H]1[C@H](OC(C)=O)[C@@H](O[C@H]2CC[C@@]3(C)C(=CC[C@]4(O)[C@@H]3C[C@@H](OC(=O)/C=C(\C)C(C)C)[C@@]3(C)[C@]4(O)CC[C@@]3(O)C(C)=O)C2)O[C@@H](C)[C@H]1OC(C)=O`, the IC50 came to 31.7 µM in the assay on HeLa, 18.9 µM with HepG2, 31.5 µM with MCF7 and 18.4 µM with HCT-116.
Regarding `CC(=O)[C@]1(O)CC[C@@]2(O)[C@]1(C)[C@H](OC(=O)/C=C(\C)C(C)C)C[C@@H]1[C@@]3(C)CC[C@H](O[C@@H]4OC[C@@H](O)[C@H](O)[C@H]4O)CC3=CC[C@]12O`, the IC50 is greater than 100 µM in the assay on HeLa, 90.9 µM in the assay on HepG2, 95.9 µM in the assay on MCF7 and 90.9 µM with HCT-116.
With `CC(=O)[C@]1(O)CC[C@@]2(O)[C@]1(C)[C@H](OC(=O)/C=C(\C)C(C)C)C[C@@H]1[C@@]3(C)CC[C@H](O[C@H]4C[C@H](O)[C@H](O)CO4)CC3=CC[C@]12O`, the half-inhibitory concentration (IC50) was 86.5 µM in the assay on HeLa, 39.8 µM in the assay with HepG2, 93 µM with MCF7 and 36.8 µM with HCT-116.
For `CC(=O)[C@]1(O)CC[C@@]2(O)[C@]1(C)[C@H](OC(=O)c1ccc(O)cc1)C[C@@H]1[C@@]3(C)CC[C@H](O[C@@H]4O[C@H](CO)[C@@H](O)[C@H](O)[C@H]4O)CC3=CC[C@]12O` the same measures were 95.5 µM, 65.3 µM, 92.6 µM and 75.1 µM.
For `CC(=O)O[C@@H]1[C@@H](OC(C)=O)[C@H](C)O[C@@H](O[C@H]2CC[C@@]3(C)C(=CC[C@]4(O)[C@@H]3C[C@@H](OC(=O)c3ccc(O)cc3)[C@@]3(C)[C@]4(O)CC[C@@]3(O)C(C)=O)C2)[C@@H]1OC(C)=O`, the IC50 amounted to 57.1 µM in the assay on HeLa, 41.4 µM with HepG2, 53.6 µM with MCF7 and 48.7 µM in the assay with HCT-116.
On to `CC(=O)OC[C@H]1O[C@@H](O[C@H]2CC[C@@]3(C)C(=CC[C@]4(O)[C@@H]3C[C@@H](OC(=O)c3ccc(O)cc3)[C@@]3(C)[C@]4(O)CC[C@@]3(O)C(C)=O)C2)[C@H](OC(C)=O)[C@@H](OC(C)=O)[C@H]1OC(C)=O`, for which the IC50 is 22.8 µM in the assay with HeLa, 9.9 µM in the assay on HepG2, 20.8 µM in the assay on MCF7 and 9.32 µM in the assay with HCT-116.
`CC(=O)O[C@H]1C[C@H](O[C@H]2CC[C@@]3(C)C(=CC[C@]4(O)[C@@H]3C[C@@H](OC(=O)/C=C(\C)C(C)C)[C@@]3(C)[C@]4(O)CC[C@@]3(O)C(C)=O)C2)OC[C@H]1OC(C)=O`: the IC50 in the assay on HeLa was found to be 43.8 µM; in the assay with HepG2, 14.1 µM; with MCF7, 26.2 µM; in the assay with HCT-116 it was 31.6 µM.
As to `CC(=O)N[C@H]1[C@H](O[C@H]2CC[C@@]3(C)C(=CC[C@]4(O)[C@@H]3C[C@@H](OC(=O)/C=C(\C)C(C)C)[C@@]3(C)[C@]4(O)CC[C@@]3(O)C(C)=O)C2)O[C@H](COC(C)=O)[C@@H](OC(C)=O)[C@@H]1OC(C)=O`, the 50% inhibitory concentration (IC50) in the assay with HeLa came out at 23.8 µM; in the assay on HepG2, 5.5 µM; in the assay on MCF7, 21.1 µM; in the assay with HCT-116, 17.3 µM.
Taken in the same sequence, the figures for `CC(=O)[C@]1(O)CC[C@@]2(O)[C@]1(C)[C@H](OC(=O)/C=C(\C)C(C)C)C[C@@H]1[C@@]3(C)CC[C@H](O[C@H]4OC[C@H](O)[C@H](O)[C@@H]4O)CC3=CC[C@]12O` were greater than 100 µM, 51.8 µM, greater than 100 µM and 72.1 µM.
Consider `CC(=O)O[C@@H]1[C@@H](OC(C)=O)[C@H](O[C@H]2CC[C@@]3(C)C(=CC[C@]4(O)[C@@H]3C[C@@H](OC(=O)/C=C(\C)C(C)C)[C@@]3(C)[C@]4(O)CC[C@@]3(O)C(C)=O)C2)OC[C@H]1OC(C)=O`, for which the IC50 was found to be 85.3 µM with HeLa, 42.6 µM in the assay on HepG2, 50.4 µM with MCF7 and 34.9 µM in the assay with HCT-116.
For `CC(=O)O[C@@H]1[C@@H](O[C@H]2CC[C@@]3(C)C(=CC[C@]4(O)[C@@H]3C[C@@H](OC(=O)/C=C(\C)C(C)C)[C@@]3(C)[C@]4(O)CC[C@@]3(O)C(C)=O)C2)OC[C@H](OC(C)=O)[C@H]1OC(C)=O`, the IC50 in the assay on HeLa was found to be 28.1 µM; with HepG2, 15.8 µM; in the assay with MCF7 it was 47 µM; in the assay on HCT-116, 12 µM.
For the molecule `CC(=O)O[C@@H]1[C@@H](OC(C)=O)[C@H](C)O[C@@H](O[C@H]2CC[C@@]3(C)C(=CC[C@]4(O)[C@@H]3C[C@@H](OC(=O)/C=C(\C)C(C)C)[C@@]3(C)[C@]4(O)CC[C@@]3(O)C(C)=O)C2)[C@@H]1OC(C)=O`, the 50% inhibitory concentration (IC50) was greater than 100 µM in the assay with HeLa, 72.8 µM with HepG2, 95 µM in the assay on MCF7 and 26.1 µM in the assay with HCT-116.
Consider `CC(=O)OC[C@H]1O[C@@H](O[C@H]2CC[C@@]3(C)C(=CC[C@]4(O)[C@@H]3C[C@@H](OC(=O)/C=C(\C)C(C)C)[C@@]3(C)[C@]4(O)CC[C@@]3(O)C(C)=O)C2)[C@H](OC(C)=O)[C@@H](OC(C)=O)[C@H]1OC(C)=O`, for which the IC50 in the assay with HeLa stood at 24.8 µM; in the assay with HepG2 it was 9.7 µM; in the assay on MCF7, 16.9 µM; in the assay on HCT-116, 7.41 µM.
For `CC(=O)O[C@@H]1[C@@H](O[C@H]2CC[C@@]3(C)C(=CC[C@]4(O)[C@@H]3C[C@@H](OC(=O)/C=C(\C)C(C)C)[C@@]3(C)[C@]4(O)CC[C@@]3(O)C(C)=O)C2)OC[C@H](OC(C)=O)[C@@H]1OC(C)=O` the same measures were 18.1 µM, 6.85 µM, 24.5 µM and 15.9 µM.
For `CC(=O)O[C@H]1[C@H](O[C@H]2CC[C@@]3(C)C(=CC[C@]4(O)[C@@H]3C[C@@H](OC(=O)/C=C(\C)C(C)C)[C@@]3(C)[C@]4(O)CC[C@@]3(O)C(C)=O)C2)OC[C@@H](OC(C)=O)[C@H]1OC(C)=O`, the IC50 came out at 58.7 µM in the assay on HeLa, 30.8 µM in the assay with HepG2, 61.1 µM in the assay with MCF7 and 52.1 µM with HCT-116.
For the molecule `CC(=O)O[C@H]1[C@@H](OC(C)=O)[C@@H](C)O[C@@H](O[C@H]2CC[C@@]3(C)C(=CC[C@]4(O)[C@@H]3C[C@@H](OC(=O)/C=C(\C)C(C)C)[C@@]3(C)[C@]4(O)CC[C@@]3(O)C(C)=O)C2)[C@@H]1OC(C)=O`, the IC50 in the assay on HeLa was 44.3 µM; in the assay with HepG2, 23.8 µM; with MCF7, 38.3 µM; with HCT-116, 20.3 µM.
With `COc1cc2c(c(OC)c1OC)-c1ccc(OC)c(=O)cc1[C@@H](NC(C)=O)CC2` [COLCHICINE], the IC50 amounted to 0.064 µM with HepG2, 0.028 µM with MCF7 and 0.046 µM in the assay on HCT-116.

One may read the IC50 as the concentration that gives 50% inhibition. Low readings indicate higher potency, high ones lower potency.
